Tested on: NF-κ B
Test: Inhibitory activity of NF-κ B activation, luciferase reporter assay in HepG2 under TNF-α stimulation
Type: cell-based, human
Details: HepG2, TNF-α (40 ng/ml), 4 hours; for inhibition at 1 µg/mL / inhibition at 10 µg/mL: Homo sapiens; for inhibition at 1 µg/mL / Inhibitory Ratio of NF-κ B Activation(%) Drug Concentration 1 μg/mL: 1 μg/mL; for inhibition at 1 µg/mL: read-out: Inhibitory Ratio of NF-κ B Activation(%) Drug Concentration 1 μg/mL; for inhibition at 10 µg/mL / Inhibitory Ratio of NF-κ B Activation(%) Drug Concentration 10 μg/mL: 10 μg/mL; for inhibition at 10 µg/mL: read-out: Inhibitory Ratio of NF-κ B Activation(%) Drug Concentration 10 μg/mL
Description: Using a transfection reagent(Effectene; QIAGEN), the human hepatoma cell strain HepG2 was transfected with a plasmid(pNF κ B-Luc Reporter Plasmid; […]) which is integrated with an oligonucleotide having five tandem copies of NF-κ B binding sequences([…]) on a upstream region of firefly luciferase gene(Luc) according to the QIAGEN's protocol, and the cells were incubated for 6 to 24 hours. After the addition of TNF-α (40 ng/ml) in the presence or absence of a test compound, the cells were incubated for 4 hours, and intracellular luciferase activity was measured by using PicaGene LT (TOYO INK MFG Co., Ltd.) and a chemical luminescence measurement apparatus ([…]luor Plus; TECAN). The inhibitory ratio was measured as a ratio relative to the value of a luciferase activity in the absence of the test compound.

Inhibitory Ratio of NF-κ B Activation(%) Drug Concentration 1 μg/mL | Inhibitory Ratio of NF-κ B Activation(%) Drug Concentration 10 μg/mL | Structure (SMILES) | inhibition at 1 µg/mL | inhibition at 10 µg/mL
– | – | N#CC(C#N)=Cc1ccc(O)c(C(=O)Nc2cc(C(F)(F)F)cc(C(F)(F)F)c2)c1 [Compound No. 16, N-[3,5-Bis(trifluoromethyl)phenyl]-5-(2,2-dicyanoethen-1-yl)-2-hydroxybenzamide] | 42.7% | 99.4%
>99.9% | – | O=C(Nc1cc(C(F)(F)F)cc(C(F)(F)F)c1)c1cc(Br)cc(-c2ccccc2)c1O [Compound No. 259] | – | –
28.8% | 87.6% | CCc1nc(NC(=O)c2cc(Br)ccc2O)sc1-c1ccccc1 [Compound No. 196] | – | –
– | – | CCc1sc(NC(=O)c2cc(Br)ccc2O)nc1C(C)(C)C [Compound No. 195, 5-Bromo-N-{4-[(1,1-dimethyl)ethyl]-5-ethylthiazol-2-yl}-2-hydroxybenzamide] | 90.5% | 98.1%
– | – | CN(C)C(=O)c1ccc(O)c(C(=O)Nc2cc(C(F)(F)F)cc(C(F)(F)F)c2)c1 [Compound No. 38, N^3-[3,5-bis(trifluoromethyl)phenyl]-4-hydroxy-N^1,N^1-dimethylisophthalamide] | 16% | 87.1%
83.0% | 93.3% | N#Cc1ccc(Cl)cc1NC(=O)c1cc(Cl)ccc1O [Compound No. 154] | – | –
93.7% | 96.4% | Cc1ccc(-c2ccccc2)cc1NC(=O)c1cc(Cl)ccc1O [Compound No. 172] | – | –
93.9% | 96.3% | N#Cc1ccc(Oc2ccc(C(F)(F)F)cc2NC(=O)c2cc(Cl)ccc2O)cc1 [Compound No. 252] | – | –
– | – | O=C(Nc1nc(-c2ccco2)c(-c2ccco2)o1)c1cc(Br)ccc1O [Compound No. 236, 5-Bromo-N-[4,5-bis(furan-2-yl)oxazol-2-yl]-2-hydroxybenzamide] | 21.4% | 56%
94.0% | 96.8% | CC(=O)Oc1ccc(Cl)cc1C(=O)Nc1cc(C(F)(F)F)ccc1C(F)(F)F [Compound No. 82] | – | –
53.3% | 90.1% | C#Cc1ccc(O)c(C(=O)Nc2cc(C(F)(F)F)cc(C(F)(F)F)c2)c1 [Compound No. 21] | – | –
– | 67.2% | Cc1nc(NC(=O)c2cc(Br)ccc2O)sc1C [Compound No. 191] | – | –
83.6% | 94.4% | Cc1sc(NC(=O)c2cc(Br)ccc2O)nc1-c1ccccc1 [Compound No. 192] | – | –
– | – | O=C(Nc1nnc(C(F)(F)F)s1)c1ccccc1O [Compound No. 237, 2-Hydroxy-N-(5-trifluoromethyl-1,3,4-thiadiazol-2-yl)benzamide] | – | 81.9%
59.7% | 98.5% | N#CC(=Cc1ccc(O)c(C(=O)Nc2cc(C(F)(F)F)cc(C(F)(F)F)c2)c1)C(=O)O [Compound No. 18] | – | –
– | – | CC(=O)c1sc(NC(=O)c2cc(Br)ccc2O)nc1-c1ccccc1 [Compound No. 214, 5-Bromo-N-(5-acetyl-4-phenylthiazol-2-yl)-2-hydroxybenzamide] | 70.2% | 95.9%

Inhibitory Ratio of NF-κ B Activation(%) Drug Concentration 1 μg/mL | Inhibitory Ratio of NF-κ B Activation(%) Drug Concentration 10 μg/mL | Structure (SMILES) | inhibition at 1 µg/mL | inhibition at 10 µg/mL
79.7% | 95.0% | O=C(Nc1nc(Cc2ccccc2)c(-c2ccccc2)s1)c1cc(Br)ccc1O [Compound No. 212] | – | –
– | 72.1% | O=C(O)Cc1sc(NC(=O)c2cc(Br)ccc2O)nc1-c1ccccc1 [Compound No. 210] | – | –
– | – | O=C(Nc1cc(C(F)(F)F)cc(C(F)(F)F)c1)c1cc(S(=O)(=O)n2cccc2)ccc1O [Compound No. 42, N-[3,5-Bis(trifluoromethyl)phenyl]-2-hydroxy-5-(pyrrole-1-sulfonyl)benzamide] | 84.4% | 98.1%
– | – | O=C(Nc1cc(C(F)(F)F)cc(C(F)(F)F)c1)c1cc(C(=O)N2CCCCC2)ccc1O [Compound No. 39, N-[3,5-Bis(trifluoromethyl)phenyl]-2-hydroxy-5-(piperidine-1-carbonyl)benzamide] | 23.7% | 82.2%
31.8% | 90.3% | CCOC(=O)c1sc(NC(=O)c2cc(-c3ccc(F)cc3F)ccc2O)nc1-c1ccccc1 [Compound No. 227] | – | –
– | 70.6% | O=C(Nc1cc(Cl)cc(Cl)c1)c1cc([N+](=O)[O-])ccc1O [Compound No. 130] | – | –
– | 67.0% | O=C(Nc1nc(-c2ccccc2)c(-c2ccccc2)s1)c1cc(Br)ccc1O [Compound No. 211] | – | –
91.0% | 95.6% | O=C(Nc1cc([N+](=O)[O-])cc([N+](=O)[O-])c1)c1cc(Br)ccc1O [Compound No. 133] | – | –
38.3% | 96.8% | COc1cc(NC(=O)c2cc(Br)ccc2O)cc(OC)c1 [Compound No. 143] | – | –
– | 89.6% | O=C(Nc1cc(N2CCOCC2)ccc1[N+](=O)[O-])c1cc(Cl)ccc1O [Compound No. 174] | – | –
– | – | CC(C)(C)c1nc(NC(=O)c2cc(Br)ccc2O)sc1N1CCCCC1 [Compound No. 204, 5-Bromo-N-{4-[(1,1-dimethyl)ethyl]-5-piperidinothiazol-2-yl)-2-hydroxybenzamide] | 93.6% | 97.8%
– | 81.8% | O=C(Nc1nc(-c2ccccc2)c(-c2ccccc2)o1)c1cc(Br)ccc1O [Compound No. 235] | – | –
87.6% | 96.5% | CCOC(=O)c1sc(NC(=O)c2cc(Br)ccc2O)nc1C(F)(F)F [Compound No. 224] | – | –
– | – | O=C(Nc1nc(-c2c(F)c(F)c(F)c(F)c2F)cs1)c1cc(Cl)ccc1O [Compound No. 266, 5-Chloro-2-hydroxy-N-[4-(2,3,4,5,6-pentafluorophenyl)thiazol-2-yl]benzamide] | > 99.9% | –
– | – | O=C(Nc1nc(-c2cccc(C(F)(F)F)c2)cs1)c1cc(Cl)ccc1O [Compound No. 265, 5-Chloro-2-hydroxy-N-{4-[3-(trifluoromethyl)phenyl]thiazol-2-yl}benzamide] | > 99.9% | –

Structure (SMILES) | Inhibitory Ratio of NF-κ B Activation(%) Drug Concentration 1 μg/mL | Inhibitory Ratio of NF-κ B Activation(%) Drug Concentration 10 μg/mL | inhibition at 1 µg/mL | inhibition at 10 µg/mL
CN(C)c1ccc(O)c(C(=O)Nc2cc(C(F)(F)F)cc(C(F)(F)F)c2)c1 [Compound No. 44] | – | 67.5% | – | –
O=C(Nc1cc(C(F)(F)F)cc(C(F)(F)F)c1)c1cccc(Cl)c1O [Compound No. 64] | 84.9% | 94.1% | – | –
COc1ccccc1Oc1ccc(C(F)(F)F)cc1NC(=O)c1cc(Cl)ccc1O [Compound No. 114] | 91.8% | 98.2% | – | –
CCNC(=O)c1sc(NC(=O)c2cc(Br)ccc2O)nc1-c1ccccc1 [Compound No. 221] | 51.9% | 84.0% | – | –
COc1ccc(C(F)(F)F)cc1NC(=O)c1cc(Cl)ccc1O [Compound No. 95] | 91.8% | 98.5% | – | –
O=C(Nc1cc(C(F)(F)F)ccc1N1CCCCC1)c1cc(Cl)ccc1O [Compound No. 116] | 90.0% | 97.3% | – | –
O=C(Nc1cc(C(F)(F)F)cc(C(F)(F)F)c1)c1ccc(F)cc1O [Compound No. 250] | 94.2% | 95.4% | – | –
CNC(=O)c1sc(NC(=O)c2cc(Br)ccc2O)nc1-c1ccccc1 [Compound No. 220] | 50.8% | 58.6% | – | –
O=C(Nc1nc(-c2ccccc2)c(C(=O)NCCc2ccccc2)s1)c1cc(Br)ccc1O [Compound No. 223] | 33.3% | 60.4% | – | –
Cc1ccc(Oc2ccc(C(F)(F)F)cc2NC(=O)c2cc(Cl)ccc2O)cc1 [Compound No. 117] | 92.8% | 92.6% | – | –
O=C(Nc1cc(C(F)(F)F)cc(C(F)(F)F)c1)c1cc(Cl)ccc1O [Compound No. 80] | 46.3% | 73.0% | – | –
COc1ccc(C(=O)Nc2cc(C(F)(F)F)cc(C(F)(F)F)c2)c(O)c1 [Compound No. 65] | 83.3% | 89.8% | – | –
O=C(Nc1cc(C(F)(F)F)cc(C(F)(F)F)c1)c1cc(N=Nc2ccc([N+](=O)[O-])cc2)ccc1O [Compound No. 48] | 96.2% | 98.7% | – | –
